Data published in patent US12319655B2, “RAF kinase inhibitors and methods of use thereof” (Deciphera Pharmaceuticals, LLC, priority 2021, dated 2025).
Like-named read-outs stand apart in the source and are kept apart here.

Columns and labels:
[1] = biological target: B-Raf (V600E) (SEQ. ID NO: 4) kinase (Homo sapiens (Human), UniProt P15056, V600E); assay: Biochemical Assay for B-Raf (V600E) (1); conditions: Table J, BRAF V600E
How it was run: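 Serially diluted compounds tested against 0.03 nM enzyme with 30.1 nM MEK substrate and 1 mM ATP (Tris pH 7.5, 15 mM MgCl2), ATP use coupled to NADH loss via PK/LDH. A340 monitored continuously 6 h, 30 °C; IC50 fitted (four-parameter) from the 3–4 h rate versus no-compound and known-inhibitor controls.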

WM3928 cells = assay: WM3928 Cell Proliferation Assay (1); type: cell-based
How it was run: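 IC50 was derived from resazurin fluorescence (ex 540, em 600 nm) after a 6–7 h dye incubation. Before that, cells had 67–72 h of compound exposure at 37 °C, 5% CO2.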

[2] = biological target: C-Raf kinase (SEQ. ID NO: 3) (Homo sapiens (Human), UniProt P04049, Y340D/Y341D); assay: Biochemical Assay for C-Raf (1); conditions: Table J
How it was run: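 IC50 values come from a four-parameter fit of percent inhibition, using the reaction rate over 4–5 h of a 6 h continuous 340 nm read at 30 °C. The enzyme mix was C-Raf 0.43 nM, MEK substrate 30.1 nM and ATP 1 mM, in a PK/LDH NADH-coupled format in Tris pH 7.5 with 1% DMSO.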

A375 cells = assay: A375 Cell Proliferation Assay (1); type: cell-based; conditions: Homo sapiens, A-375
How it was run: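 Resazurin fluorescence (excitation 540 nm, emission 600 nm, after a further 5-6 h) gave IC50s from triplicate compound dilution series.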

[3] = assay version (1), read-out: BRAF VE (1) IC50
[4] = assay version (1), read-out: CRAF (1) IC50
[5] = biochemical assay (1), read-out: BRAF VE (1)
[6] = biochemical assay (1), read-out: CRAF (1)

Sequence of B-Raf (V600E) (SEQ. ID NO: 4) kinase (P15056 416-766 V600E): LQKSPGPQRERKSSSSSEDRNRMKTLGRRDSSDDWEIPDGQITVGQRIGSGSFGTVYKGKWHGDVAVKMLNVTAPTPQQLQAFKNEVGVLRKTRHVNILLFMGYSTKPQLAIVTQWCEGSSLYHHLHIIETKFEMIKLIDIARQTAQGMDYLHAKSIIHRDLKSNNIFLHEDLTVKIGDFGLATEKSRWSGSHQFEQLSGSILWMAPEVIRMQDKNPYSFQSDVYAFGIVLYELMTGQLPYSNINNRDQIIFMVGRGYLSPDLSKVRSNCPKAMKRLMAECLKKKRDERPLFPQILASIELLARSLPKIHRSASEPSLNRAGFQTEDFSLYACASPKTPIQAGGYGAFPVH
Sequence of C-Raf kinase (SEQ. ID NO: 3) (P04049 307-648 Y340D/Y341D): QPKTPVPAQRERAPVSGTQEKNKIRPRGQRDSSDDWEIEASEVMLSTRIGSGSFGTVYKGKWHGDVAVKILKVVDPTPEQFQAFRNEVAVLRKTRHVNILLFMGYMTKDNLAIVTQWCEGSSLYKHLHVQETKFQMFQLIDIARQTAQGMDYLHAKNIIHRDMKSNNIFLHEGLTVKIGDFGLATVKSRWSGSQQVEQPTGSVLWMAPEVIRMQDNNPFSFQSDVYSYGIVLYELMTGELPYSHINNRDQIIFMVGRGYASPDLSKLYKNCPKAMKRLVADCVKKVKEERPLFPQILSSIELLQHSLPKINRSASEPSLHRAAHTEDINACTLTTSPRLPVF

Structure (SMILES)	IC50 [1, 3] [nM]	IC50 [2, 4] [nM]	IC50 (A375 cells) [nM]	IC50 [1, 5] [nM]	IC50 [2, 6] [nM]	IC50 (WM3928 cells) [nM]
Cc1cc(-c2cc(NC(=O)c3ccnc(C(F)(F)F)c3)ccc2F)cc(-c2ccnc(NC(=O)C3CC3)c2)n1 [Example 72]	≤ 100	≤ 100	1000 to 10000	–	–	100 to 500
CNC(=O)c1cc(-c2cc(-c3cc(C(=O)Nc4ccnc(C(C)(C)C#N)c4)ccc3C)ccn2)ccn1 [Example 74]	≤ 100	100 to 500	100 to 500	–	–	100 to 500
CNC(=O)c1cc(-c2nccc(-c3cc(NC(=O)c4ccnc(C(C)(C)C#N)c4)ccc3C)n2)ccn1 [Example 78]	≤ 100	≤ 100	≤ 100	–	–	≤ 100
CNC(=O)c1cc(-c2cc(-c3cc(NC(=O)c4ccnc(C(F)(F)F)c4)ccc3C)ncn2)ccn1 [Example 85]	≤ 100	≤ 100	1000 to 10000	–	–	1000 to 10000
CNC(=O)c1cc(-c2cncc(-c3cc(NC(=O)c4ccnc(C(C)(C)C#N)c4)ccc3C)n2)ccn1 [Example 86]	≤ 100	≤ 100	≤ 100	–	–	≤ 100
COCC(=O)Nc1cc(-c2nccc(-c3cc(NC(=O)c4ccnc(C(C)(C)C#N)c4)ccc3C)n2)ccn1 [Example 88]	≤ 100	≤ 100	≤ 100	–	–	≤ 100
CC(=O)Nc1cc(-c2cc(-c3cc(NC(=O)c4ccnc(C(C)(C)C#N)c4)ccc3C)nc(C)n2)ccn1 [Example 89]	≤ 100	≤ 100	100 to 500	–	–	≤ 100
COC(=O)Nc1cc(-c2cnnc(-c3cc(NC(=O)c4ccnc(C(C)(C)F)c4)ccc3C)c2)ccn1 [Example 375]	–	–	100 to 500	≤ 100	≤ 100	≤ 100
CNC(=O)c1cc(-c2ccnc(-c3cc(NC(=O)c4ccnc(C(C)(C)C#N)c4)ccc3C)c2)ccn1 [Example 376]	–	–	≤ 100	≤ 100	≤ 100	100 to 500
CNC(=O)c1cc(-c2ccnc(-c3cc(NC(=O)c4ccnc(C(C)(C)F)c4)ccc3C)c2)ccn1 [Example 378]	–	–	≤ 100	≤ 100	≤ 100	100 to 500
CNC(=O)c1cc(-c2cncc(-c3cc(NC(=O)c4ccnc(C(C)(C)F)c4)ccc3C)c2)ncn1 [Example 379]	–	–	≤ 100	≤ 100	≤ 100	≤ 100
Cc1ccc(NC(=O)c2ccnc(C(C)(C)F)c2)cc1-c1cncc(-c2ccnc(C(N)=O)c2)c1 [Example 380]	–	–	100 to 500	≤ 100	≤ 100	≤ 100
COC(=O)Nc1cc(-c2cc(-c3cc(NC(=O)c4ccnc(C(C)(C)F)c4)c(F)cc3C)cc(C)n2)ccn1 [Example 386]	–	–	100 to 500	≤ 100	≤ 100	100 to 500
Cc1ccc(NC(=O)[C@H]2CCO[C@@H](C(C)C)C2)cc1-c1cc(-c2ccnc(NC(=O)C3CC3)c2)cnn1 [Example 388]	–	–	1000 to 10000	100 to 500	≤ 100	500 to 1000
Cc1ccc(NC(=O)[C@H]2CCO[C@H](C(C)C)C2)cc1-c1cc(-c2ccnc(NC(=O)C3CC3)c2)cnn1 [Example 389]	–	–	1000 to 10000	100 to 500	≤ 100	500 to 1000
CNC(=O)c1cc(-c2ccnc(-c3cc(NC(=O)CCC4(F)CC4)ccc3C)c2)ccn1 [Example 392]	–	–	1000 to 10000	1000 to 10000	100 to 500	1000 to 10000
CNC(=O)c1cc(-c2cncc(-c3cc(NC(=O)c4ccnc(C5(C#N)CC5)c4)ccc3C)c2)ncn1 [Example 393]	–	–	100 to 500	≤ 100	≤ 100	≤ 100
Cc1ccc(NC(=O)c2ccnc(C(F)(F)F)c2)cc1-c1cncc(-c2cc(NC(=O)C3CC3)ncn2)c1 [Example 397]	–	–	≤ 100	≤ 100	≤ 100	≤ 100
Cc1cc(F)c(NC(=O)c2ccnc(C(C)(C)F)c2)cc1-c1cncc(-c2ccnc(NC(=O)C3CC3)c2)c1 [Example 399]	–	–	≤ 100	≤ 100	≤ 100	≤ 100
COC(=O)Nc1cc(-c2ccnc(-c3cc(NC(=O)c4ccnc(C(C)(C)F)c4)ccc3C)n2)ccn1 [Example 403]	–	–	100 to 500	≤ 100	≤ 100	≤ 100

The next lines start with results.

IC50 [1, 3] [nM]	IC50 [2, 4] [nM]	IC50 (A375 cells) [nM]	IC50 [1, 5] [nM]	IC50 [2, 6] [nM]	Structure (SMILES)	IC50 (WM3928 cells) [nM]
≤ 100	≤ 100	≤ 100	–	–	CCOc1ncc(-c2cc(NC(=O)c3ccnc(C(F)(F)F)c3)ccc2C)cc1-c1ccnc(NC(C)=O)c1 [Example 68]	≤ 100
≤ 100	100 to 500	100 to 500	–	–	CCOc1ncc(-c2cc(NC(=O)c3ccnc(C(F)(F)F)c3)ccc2C)cc1-c1ccnc(C(=O)NC)c1 [Example 69]	≤ 100
≤ 100	100 to 500	100 to 500	–	–	CCOc1ncc(-c2cc(NC(=O)c3ccnc(C(F)(F)F)c3)ccc2C)cc1-c1ccnc(NC(=O)C2CC2)c1 [Example 71]	≤ 100
≤ 100	≤ 100	≤ 100	–	–	Cc1ccc(NC(=O)c2ccnc(C(C)(C)C#N)c2)cc1-c1cccc(-c2cc(NC(=O)C3CC3)ncn2)c1 [Example 77]	≤ 100
≤ 100	≤ 100	≤ 100	–	–	Cc1ccc(NC(=O)c2ccnc(C(F)(F)F)c2)cc1-c1cccc(-c2cc(NC(=O)C3CC3)ncn2)c1 [Example 80]	100 to 500
≤ 100	≤ 100	500 to 1000	–	–	Cc1ccc(NC(=O)c2ccnc(C(C)(C)C#N)c2)cc1-c1ccnc(-c2ccnc(N)c2)n1 [Example 82]	1000 to 10000
–	–	100 to 500	≤ 100	≤ 100	Cc1ccc(NC(=O)c2cc(C3CC3)n(C)n2)cc1-c1cc(-c2ccnc(NC(=O)C3CC3)c2)cnn1 [Example 377]	≤ 100
–	–	≤ 100	≤ 100	≤ 100	COC(=O)Nc1cc(-c2cncc(-c3cc(NC(=O)c4ccnc(C(C)(C)F)c4)c(F)cc3C)c2)ccn1 [Example 384]	≤ 100
–	–	1000 to 10000	≤ 100	100 to 500	Cc1ncc(NC(=O)c2ccnc(C(C)(C)C#N)c2)cc1-c1cccc(-c2ncnn3cccc23)c1 [Example 385]	1000 to 10000
–	–	≤ 100	≤ 100	≤ 100	COC(=O)Nc1cc(-c2nccc(-c3cc(NC(=O)c4ccnc(C(C)(C)F)c4)ccc3C)n2)ccn1 [Example 391]	≤ 100
–	–	≤ 100	≤ 100	≤ 100	Cc1ccc(NC(=O)c2ccnc(C(C)(C)F)c2)cc1-c1cncc(-c2cc(NC(=O)C3CC3)ncn2)c1 [Example 394]	≤ 100
–	–	≤ 100	≤ 100	≤ 100	Cc1ccc(NC(=O)c2ccnc(C3(C#N)CC3)c2)cc1-c1cncc(-c2cc(NC(=O)C3CC3)ncn2)c1 [Example 395]	≤ 100
–	–	≤ 100	≤ 100	≤ 100	Cc1ccc(NC(=O)c2ccnc(C3CC3)c2)cc1-c1cncc(-c2cc(NC(=O)C3CC3)ncn2)c1 [Example 396]	≤ 100
–	–	≤ 100	≤ 100	≤ 100	Cc1cc(F)c(NC(=O)c2ccnc(C3CC3)c2)cc1-c1cncc(-c2cc(NC(=O)C3CC3)ncn2)c1 [Example 398]	≤ 100
–	–	1000 to 10000	100 to 500	≤ 100	Cc1ccc(NC(=O)c2ccnc(C(C)(C)F)c2)cc1-c1cc(-c2ccnc3[nH]ncc23)cnn1 [Example 400]	1000 to 10000
–	–	≤ 100	≤ 100	≤ 100	COC(=O)Nc1cc(-c2cc(-c3cc(NC(=O)c4ccnc(C(C)(C)F)c4)ccc3C)cc(OCCO)n2)ccn1 [Example 401]	≤ 100
–	–	100 to 500	≤ 100	≤ 100	COC(=O)Nc1cc(-c2cccc(-c3cc(NC(=O)c4ccnc(C(C)(C)F)c4)cnc3C)c2)ccn1 [Example 402]	100 to 500
